Literature values as cited in US7528137B2, “Compounds, compositions, and methods” (Cytokinetics, Inc., priority 2002, dated 2009).

System: A549 cells
Settings: data provided by National Cancer Institute, Developmental Therapeutic Program
For `O=c1[nH]cc(F)c(=O)[nH]1` [5-fluorouracil], the GI50 is listed as 1000 nM. In the case of `COc1cccc2c1C(=O)c1c(O)c3c(c(O)c1C2=O)C[C@@](O)(C(=O)CO)C[C@@H]3O[C@H]1C[C@H](N)[C@H](O)[C@H](C)O1` [doxorubicin], the GI50 is given as 63 nM. For `NC(=O)NO` [hydroxyurea], the GI50 is listed as 500000 nM. In the case of `CC(=O)O[C@H]1C(=O)[C@@]2(C)[C@H]([C@H](OC(=O)c3ccccc3)[C@]3(O)C[C@H](OC(=O)[C@H](O)[C@@H](NC(=O)c4ccccc4)c4ccccc4)C(C)=C1C3(C)C)[C@]1(OC(C)=O)CO[C@@H]1C[C@@H]2O` [paclitaxel], the GI50 is listed as 4 nM.
